Measured values published in ChEMBL document CHEMBL3881525, “Analogs of dehydrophenylahistins and their therapeutic use” (2007).
In brackets after ≈: the same amount, converted by molar mass. Activity calls are given as the source filed them. No cut-off for these calls is given here.

Tests used:
[1] = Cytotoxicity against human HT-29 cells assessed as reduction in cell viability measured after 48 hrs by resazurin dye-based fluorometric analysis; assay type: functional
[2] = Cytotoxicity against human HT-29 cells assessed as reduction in cell viability measured after 48 hrs by resazurin dye-based fluorometric analysis relative to control; assay type: functional
[3] = Antifungal activity against Trichophyton mentagrophytes isolate 2 measured after 48 hrs by broth dilution method; assay type: functional
Aspergillus fumigatus [4] = test: Antifungal activity against Aspergillus fumigatus isolate 2 measured after 48 hrs by broth dilution method; assay type: functional; settings: isolate 2, 48 h
[5] = Antifungal activity against Trichophyton rubrum isolate 2 measured after 48 hrs by broth dilution method; assay type: functional
[6] = Antifungal activity against Epidermophyton floccosum isolate 1 measured after 48 hrs by broth dilution method; assay type: functional
[7] = Antifungal activity against Trichophyton mentagrophytes isolate 1 measured after 48 hrs by broth dilution method; assay type: functional
[8] = Antifungal activity against Trichophyton rubrum isolate 1 measured after 48 hrs by broth dilution method; assay type: functional
[9] = Cytotoxicity against human PC3 cells assessed as reduction in cell viability measured after 48 hrs by resazurin dye-based fluorometric analysis relative to control; assay type: functional, PC-3; parameters: concentration or dose not given beside the values
Aspergillus fumigatus [10] = test: Antifungal activity against Aspergillus fumigatus isolate 1 measured after 48 hrs by broth dilution method; assay type: functional; settings: isolate 1, 48 h
[11] = test system: Trichophyton mentagrophytes; test: Fungicidal activity against Trichophyton mentagrophytes isolate 1 measured after 48 hrs by broth dilution method; assay type: functional; settings: isolate 1, 48 h
Trichophyton rubrum = test: Fungicidal activity against Trichophyton rubrum isolate 2 measured after 48 hrs by broth dilution method; assay type: functional; settings: isolate 2, 48 h
[12] = Antifungal activity against Epidermophyton floccosum isolate 2 measured after 48 hrs by broth dilution method; assay type: functional
[13] = Antifungal activity against Candida glabrata measured after 48 hrs by broth dilution method; assay type: functional; settings: Nakaseomyces glabratus
HL-60 = test: Ratio of EC50 for human mitoxantrone-sensitive HL60 cells to EC50 for human mitoxantrone-resistant HL60/MX2 cells; assay type: functional
Tubulin (Homo sapiens) [14] = biological target: T1, Tubulin (Homo sapiens) (UniProt P68371+Q9H4B7+P0DPH7+P68366+Q13509+Q71U36+P04350+Q3ZCM7+P07437+P68363+Q9BQE3+Q6PEY2+Q13885+Q9BVA1+Q9BUF5); test: Induction of microtubule depolymerization in HUVEC at 1.5 to 5 uM by turbidity spectroscopic analysis; assay type: cell-based
Tubulin (Homo sapiens) [15] = biological target: T1, Tubulin (Homo sapiens); test: Induction of microtubule depolymerization in HUVEC at 20 nM measured after 30 mins by DAPI-staining based immunofluorescence analysis; assay type: cell-based
MES-SA = test: Ratio of EC50 for taxol-resistant human MES-SA/DX5 cells expressing MDR1 mRNA and P-gp to EC50 for taxol-sensitive human MES-SA cells; assay type: functional
[16] = Antiproliferative activity against taxol-resistant human MES-SA/Dx5 cells expressing MDR1 mRNA and P-gp; assay type: functional, cell-based
[17] = Antiproliferative activity against human mitoxantrone-resistant HL60/MX2 cells; assay type: functional, cell-based; settings: HL-60
[18] = Antiproliferative activity against human mitoxantrone-sensitive HL60 cells; assay type: functional, cell-based; settings: HL-60

Row | Structure (SMILES) | EC50 ([1]; Homo sapiens, HT-29, 48 h) [nM] | inhibition (INH) [2] | other results
1 | COc1ccc(F)c(/C=c2\[nH]c(=O)/c(=C/c3nc[nH]c3C(C)(C)C)[nH]c2=O)c1.O=C(O)C(F)(F)F | 19 to 20.3 | 88% | –
2 | CC(C)(C)c1[nH]cnc1/C=c1\[nH]c(=O)/c(=C/c2ccc(Cl)s2)[nH]c1=O | 165 to 184 | – | –
3 | CC(C)(C)c1[nH]cnc1/C=c1\[nH]c(=O)/c(=C/c2cc(Cl)cc(Cl)c2)[nH]c1=O.O=C(O)C(F)(F)F | – | 87% | –
4 | COc1cccc(/C=c2\[nH]c(=O)/c(=C/c3nc[nH]c3C(C)(C)C)[nH]c2=O)c1N.O=C(O)C(F)(F)F | – | 87% | –
5 | C=CC(C)(C)c1[nH]cnc1/C=c1\[nH]c(=O)/c(=C/c2ccc(OC)cc2)[nH]c1=O | 6570 to 6730 | 63% | –
6 | COC1=CC(=O)C[C@@H](C)[C@]12Oc1c(Cl)c(OC)cc(OC)c1C2=O [GRISEOFULVIN] | – | – | MIC [3]: 2 µg/mL (≈ 5.67 µM); MIC (Aspergillus fumigatus [4]): 0.5 µg/mL (≈ 1.42 µM); MIC [5]: < 0.015 µg/mL; MIC [6]: 2 µg/mL (≈ 5.67 µM); MIC [7]: 1 µg/mL (≈ 2.83 µM); MIC [8]: 0.5 µg/mL (≈ 1.42 µM)
7 | Cc1ccsc1/C=c1\[nH]c(=O)/c(=C/c2nc[nH]c2C(C)(C)C)[nH]c1=O | 44 to 47 | 86% | Activity [9]: 81%
8 | COc1ccsc1/C=c1\[nH]c(=O)/c(=C/c2nc[nH]c2C(C)(C)C)[nH]c1=O.O=C(O)C(F)(F)F | – | 88% | –
9 | Cc1cccc(/C=c2\[nH]c(=O)/c(=C/c3nc[nH]c3C(C)(C)C)[nH]c2=O)n1.O=C(O)C(F)(F)F.O=C(O)C(F)(F)F | > 2000 | 37% | –
10 | CCc1ccc(/C=c2\[nH]c(=O)/c(=C/c3nc[nH]c3C(C)(C)C)[nH]c2=O)o1.O=C(O)C(F)(F)F | 2420 | 86% | –
11 | CC(C)(C)c1[nH]cnc1/C=c1\[nH]c(=O)/c(=C/c2cccc3c2OCO3)[nH]c1=O.O=C(O)C(F)(F)F | – | 82% | EC50 ([1]; ht-29): 477 to 520 nM
12 | Cc1ccc(/C=c2\[nH]c(=O)/c(=C/c3nc[nH]c3C(C)(C)C)[nH]c2=O)s1 | 80 to 85.2 | 85 - 97% | –
13 | CCC(C)n1ncn(-c2ccc(N3CCN(c4ccc(OCC5COC(Cn6cncn6)(c6ccc(Cl)cc6Cl)O5)cc4)CC3)cc2)c1=O (centres undefined) [ITRACONAZOLE] | – | – | MIC (Aspergillus fumigatus [10]): 1 µg/mL (≈ 1.42 µM)
14 | C=CC(C)(C)c1[nH]cnc1/C=C1\NC(=O)[C@H](Cc2ccccc2)NC1=O | 394 to 1600 | 87% | MIC [3]: > 16 µg/mL; MIC (Aspergillus fumigatus [4]): > 16 µg/mL; MIC [5]: 0.16 µg/mL (≈ 0.457 µM); MFC [11]: > 16 µg/mL; MIC (Aspergillus fumigatus [10]): > 16 µg/mL; MIC [6]: > 16 µg/mL; MIC [7]: 16 µg/mL (≈ 45.7 µM); MIC [8]: > 16 µg/mL; MFC (Trichophyton rubrum): > 16 µg/mL; MIC [12]: > 16 µg/mL; MIC [13]: > 70 µg/mL
15 | CC(C)(C)c1[nH]cnc1/C=c1\[nH]c(=O)/c(=C/c2ccc(C#N)cc2)[nH]c1=O.O=C(O)C(F)(F)F | – | 14% | –
16 | CC(C)(C)c1ocnc1/C=c1\[nH]c(=O)/c(=C/c2c(F)ccc(F)c2F)[nH]c1=O | – | – | Ratio EC50 (HL-60): 1; Activity (Tubulin (Homo sapiens) [14]): Active; Activity (Tubulin (Homo sapiens) [15]): Active; Ratio EC50 (MES-SA): 1.2; IC50 [16]: 27 nM
17 | Cn1cccc1/C=c1\[nH]c(=O)/c(=C/c2nc[nH]c2C(C)(C)C)[nH]c1=O.O=C(O)C(F)(F)F | 105 to 117 | 88% | –
18 | CC(C)(C)c1[nH]cnc1/C=c1\[nH]c(=O)/c(=C/c2cc(Br)ccc2O)[nH]c1=O.O=C(O)C(F)(F)F | > 2000 | 13% | –
19 | Cc1[nH]cnc1/C=c1\[nH]c(=O)/c(=C/c2nc[nH]c2C(C)(C)C)[nH]c1=O.O=C(O)C(F)(F)F.O=C(O)C(F)(F)F | 2350 to 2790 | 84% | –
20 | Cc1ccc(C)c(/C=c2\[nH]c(=O)/c(=C/c3nc[nH]c3C(C)(C)C)[nH]c2=O)c1.O=C(O)C(F)(F)F | – | 87% | –
21 | COc1ccc(O)c(/C=c2\[nH]c(=O)/c(=C/c3nc[nH]c3C(C)(C)C)[nH]c2=O)c1.O=C(O)C(F)(F)F | > 2000 | 25% | Ratio EC50 (HL-60): 1; EC50 [17]: 31 nM; EC50 [18]: 32 nM
22 | CC(C)(C)c1ocnc1/C=c1\[nH]c(=O)/c(=C/c2c3ccccc3cc3ccccc23)[nH]c1=O | > 6230 | – | –
23 | COc1cccc(/C=c2\[nH]c(=O)/c(=C/c3nc[nH]c3C(C)(C)C)[nH]c2=O)c1O | 5360 to 5870 | 79 - 86% | –
24 | CC(C)(C)c1[nH]cnc1/C=c1\[nH]c(=O)/c(=C/c2cc(Cl)ccc2[N+](=O)[O-])[nH]c1=O.O=C(O)C(F)(F)F | 99.7 to 110 | 86% | Ratio EC50 (HL-60): 0.7; EC50 [17]: 19 nM; EC50 [18]: 28 nM
25 | CC(C)(C)c1[nH]cnc1/C=c1\[nH]c(=O)/c(=C/c2cc(Br)cs2)[nH]c1=O.O=C(O)C(F)(F)F | 1710 | 86% | –
26 | CC(C)(C)c1ccc(O)c(/C=c2\[nH]c(=O)/c(=C/c3nc[nH]c3C(C)(C)C)[nH]c2=O)c1.O=C(O)C(F)(F)F | – | 80% | –

Row | Structure (SMILES) | EC50 ([1]; Homo sapiens, HT-29, 48 h) [nM] | inhibition (INH) [2] | other results
27 | CC(C)(C)c1[nH]cnc1/C=c1\[nH]c(=O)/c(=C/c2ccc3c(c2)OCO3)[nH]c1=O | 82 to 87.3 | 84% | Activity [9]: 95%
28 | CC(C)(C)c1ocnc1/C=c1\[nH]c(=O)/c(=C/c2cn(S(=O)(=O)c3ccccc3)c3ccccc23)[nH]c1=O | > 6230 | – | –
29 | CC(C)(C)c1ccc(O)c(/C=c2\[nH]c(=O)/c(=C/c3ccccc3)[nH]c2=O)c1.O=C(O)C(F)(F)F | > 2000 | 14% | –
30 | CCc1ccc(/C=c2\[nH]c(=O)/c(=C/c3nc[nH]c3C(C)(C)C)[nH]c2=O)s1.O=C(O)C(F)(F)F | – | 87% | –
31 | C=CC(C)(C)c1[nH]cnc1/C=C1\N=C(OC)C(Cc2ccccc2)N=C1OC (centres undefined) | > 2000 | 4% | –
32 | Cc1c(F)cccc1/C=c1\[nH]c(=O)/c(=C/c2nc[nH]c2C(C)(C)C)[nH]c1=O.O=C(O)C(F)(F)F | – | 86% | –
33 | COc1cccc(/C=c2\[nH]c(=O)/c(=C/c3nc[nH]c3C(C)(C)C)[nH]c2=O)c1[N+](=O)[O-].O=C(O)C(F)(F)F | – | 83% | –
34 | CC(C)(C)c1[nH]cnc1/C=c1\[nH]c(=O)/c(=C/c2ccccc2N)[nH]c1=O.O=C(O)C(F)(F)F | – | 86% | –
35 | Cc1cccc(/C=c2\[nH]c(=O)/c(=C/c3nc[nH]c3C(C)(C)C)[nH]c2=O)c1C.O=C(O)C(F)(F)F | 2.96 to 3 | 87% | –
36 | CC(C)(C)c1ocnc1/C=c1\[nH]c(=O)/c(=C/c2cc3ccccc3s2)[nH]c1=O | > 2000 | – | –
37 | CSc1ccccc1/C=c1\[nH]c(=O)/c(=C/c2nc[nH]c2C(C)(C)C)[nH]c1=O.O=C(O)C(F)(F)F | – | 87% | –
38 | C=CC(C)(C)c1[nH]cnc1/C=C1\NC(=O)C(Cc2ccccc2)N=C1OC (centres undefined) | > 2000 | 13% | –
39 | COc1ccc(/C=c2\[nH]c(=O)/c(=C/c3nc[nH]c3C(C)(C)C)[nH]c2=O)cc1O.O=C(O)C(F)(F)F | – | 66% | –
40 | CC(C)(C)c1[nH]cnc1/C=c1\[nH]c(=O)/c(=C/c2sccc2B(O)O)[nH]c1=O.O=C(O)C(F)(F)F | – | 88% | –
41 | CC(C)(C)c1[nH]cnc1/C=c1\[nH]c(=O)/c(=C/c2ccc(Br)o2)[nH]c1=O.O=C(O)C(F)(F)F | – | 87% | –
42 | CC(C)(C)c1[nH]cnc1/C=c1\[nH]c(=O)/c(=C/c2cccc(OC(F)(F)F)c2)[nH]c1=O.O=C(O)C(F)(F)F | 13 to 14.3 | 87% | –
43 | C=CC(C)(C)c1[nH]cnc1/C=c1\[nH]c(=O)/c(=C\c2ccc(OC)cc2)[nH]c1=O | – | 63% | –
44 | CC(C)(C)c1[nH]cnc1/C=c1\[nH]c(=O)/c(=C/c2cccc3c2OCO3)[nH]c1=O | – | – | EC50 ([1]; ht-29): 52 nM
45 | CC(C)(C)c1[nH]cnc1/C=c1\[nH]c(=O)/c(=C/c2cc([N+](=O)[O-])ccc2Cl)[nH]c1=O | 51 to 53.4 | 86% | Activity [9]: 100%
46 | COc1ccc(/C=c2\[nH]c(=O)/c(=C/c3nc[nH]c3C(C)(C)C)[nH]c2=O)c(O)c1.O=C(O)C(F)(F)F | > 2000 | 8% | –
47 | COc1cc(OC)c(/C=c2\[nH]c(=O)/c(=C/c3nc[nH]c3C(C)(C)C)[nH]c2=O)c(OC)c1.O=C(O)C(F)(F)F | > 2000 | 2% | –
48 | COc1cc(/C=c2\[nH]c(=O)/c(=C/c3nc[nH]c3C(C)(C)C)[nH]c2=O)cc(OC)c1 | 42 to 45.4 | 87% | Activity [9]: 82%
49 | COc1cc(/C=c2\[nH]c(=O)/c(=C/c3nc[nH]c3C(C)(C)C)[nH]c2=O)ccc1F.O=C(O)C(F)(F)F | – | 85% | –
50 | COc1cccc2cc3c(=O)[nH]/c(=C\c4nc[nH]c4C(C)(C)C)c(=O)n3c12 | 6920 to 7040 | 58 - 100% | –
51 | COc1cccc(C)c1/C=c1\[nH]c(=O)/c(=C/c2nc[nH]c2C(C)(C)C)[nH]c1=O | 517 | – | –
52 | CC(C)(C)c1[nH]cnc1/C=c1\[nH]c(=O)/c(=C/c2cc(Cl)ccc2O)[nH]c1=O.O=C(O)C(F)(F)F | > 2000 | 37% | –
